Data reported in patent publication US8642626B2, “Ethinyl-pyrazole derivative” (Taisho Pharmaceutical Co., Ltd., priority 2010, dated 2014).
pIC50: −log10 of the molar value.

Target: T1, rat metabotropic glutamate receptor (mGlu2) (Rattus norvegicus, UniProt P31421)
T1 construct: expressed in transfected cells
Experiment: [35S]GTPγS binding test (1), crude membrane fraction of CHO cells stably expressing rat mGlu2
Type: biochemical
Conditions: inhibition of glutamic acid (20 μM)-stimulated specific [35S]GTPγS binding, rat mGlu2 CHO membranes
Experimental: [^35S]GTPγS Binding Test (1)
(Preparation of Crude Membrane Fraction of CHO Cells Stably Expressing the Rat Metabotropic Glutamate Receptor (mGlu2))
(§1) CHO cells stably expressing the rat mGlu2 were cultured in a 10% dialyzed fetal bovine serum-containing Dulbecco's Modified Eagle's Medium [1% proline, 50 units/mL penicillin, 50 μg/mL streptomycin, and 2 mM L-glutamine (to be added when used)] at 37° C. in 5% CO2. Confluent cells were washed with PBS(−) twice, and were then harvested with a cell scraper. Then, the cells were centrifuged at 4° C. at 1000 rpm for 5 minutes to collect. The obtained precipitate was suspended in a 20 mM HEPES buffer (pH 7.4), and then homogenized with a Teflon (registered trademark) homogenizer. The resultant was centrifuged at 4° C. at 48,000×g for 20 minutes to obtain a precipitate again. The obtained precipitate was washed twice by centrifugation, and was then homogenized with the above-mentioned buffer, so as to obtain a crude membrane fraction. The obtained crude membrane fraction was preserved at −80° C.
The frozen membrane fraction as prepared above was thawed when used, and it was then diluted with a binding test buffer (final concentration: 20 mM HEPES, 100 mM NaCl, 10 mM MgCl2, 8.4 μM GDP, 10 μg/mL saponin, and 0.1% BSA). The compound of the Example was added to a membrane fraction (10 μg protein/assay), and the obtained mixture was then incubated at 30° C. for 20 minutes. Thereafter, glutamic acid (final concentration: 20 μM; but it was 30 μM only in the compounds 1 and 40 of the Examples) and [^35S]GTPγS (final concentration: 0.15 nM) were added to the reaction mixture, and then incubated at 30° C. for 1 hour. After completion of the incubation, the reaction mixture was subjected to filtration over a Whatman GF/C filter that had previously been immersed in a 20 mM HEPES buffer (pH 7.4), and the filter was then washed three times with 300 μL of ice-cold 20 mM HEPES buffer (pH 7.4). A scintillation cocktail was added to the resulting filter, and membrane-bound radioactivity was then measured with a liquid scintillation counter.
The amount of [^35S]GTPγS bound in the case of carrying out the above described reaction in the absence of glutamic acid was defined as non-specific binding. The difference between such non-specific bound and the amount of [^35S]GTPγS bound in the presence of glutamic acid was defined as specific binding. Using non-linear analysis, a concentration-inhibition curve was produced. The concentration of the compound of each Example that caused 50% inhibition (IC50 value) of specific binding was determined from each concentration-inhibition curve.

T1 sequence (P31421 19-872): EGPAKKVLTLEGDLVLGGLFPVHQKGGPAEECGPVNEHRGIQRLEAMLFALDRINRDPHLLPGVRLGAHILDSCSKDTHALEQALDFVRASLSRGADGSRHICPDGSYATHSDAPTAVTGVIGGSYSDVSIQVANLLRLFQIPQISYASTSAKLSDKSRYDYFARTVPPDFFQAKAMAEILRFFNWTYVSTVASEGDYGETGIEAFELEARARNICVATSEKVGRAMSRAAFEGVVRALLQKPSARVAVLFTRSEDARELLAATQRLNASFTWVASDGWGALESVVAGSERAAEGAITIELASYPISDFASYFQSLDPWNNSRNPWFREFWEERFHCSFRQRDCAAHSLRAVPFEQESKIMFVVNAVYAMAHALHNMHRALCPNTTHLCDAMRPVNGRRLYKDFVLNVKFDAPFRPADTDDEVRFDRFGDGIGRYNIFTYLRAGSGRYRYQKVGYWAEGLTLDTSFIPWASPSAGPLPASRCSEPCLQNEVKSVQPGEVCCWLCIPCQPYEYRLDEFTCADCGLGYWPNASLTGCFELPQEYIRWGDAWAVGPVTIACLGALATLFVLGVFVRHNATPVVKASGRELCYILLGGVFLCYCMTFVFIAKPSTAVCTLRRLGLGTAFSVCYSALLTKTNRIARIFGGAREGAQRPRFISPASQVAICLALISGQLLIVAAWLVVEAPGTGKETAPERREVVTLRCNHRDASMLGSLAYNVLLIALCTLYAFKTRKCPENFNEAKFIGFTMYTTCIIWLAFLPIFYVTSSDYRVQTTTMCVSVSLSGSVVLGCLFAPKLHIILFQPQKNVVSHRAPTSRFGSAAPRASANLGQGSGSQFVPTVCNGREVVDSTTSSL

SMILES	pIC50
Cn1ncc(C#Cc2cccc(S(N)(=O)=O)c2)c1COc1ccc(C#N)cc1 [Example 100, 3-({5-[(4-cyanophenoxy)methyl]-1-methyl-1H-pyrazol-4-yl}ethynyl)benzenesulfonamide]	7.21
Cn1ncc(C#Cc2ccc(S(N)(=O)=O)cc2F)c1CCc1ccc(C(F)(F)F)cc1 [Example 83, 3-fluoro-4-[(1-methyl-5-{2-[4-(trifluoromethyl)phenyl]ethyl}-1H-pyrazol-4-yl)ethynyl]benzenesulfonamide]	7.66
Cn1ncc(C#Cc2ccc(S(N)(=O)=O)cc2)c1N1Cc2ccc(Cl)cc2C1 [Example 58, 4-{[5-(5-chloro-1,3-dihydro-2H-isoindol-2-yl)-1-methyl-1H-pyrazol-4-yl]ethynyl}benzenesulfonamide]	7.86
Cn1ncc(C#Cc2cccc(S(N)(=O)=O)c2)c1CNc1ccc(C(F)(F)F)cc1 [Example 98]	7.37
Cn1ncc(C#Cc2cccc(S(N)(=O)=O)c2)c1CCOc1ccc(C(F)(F)F)cc1 [Example 106, 3-[(1-methyl-5-{2-[4-(trifluoromethyl)phenoxy]ethyl}-1H-pyrazol-4-yl)ethynyl]benzenesulfonamide]	8.10
Cn1ncc(C#Cc2cccc(S(N)(=O)=O)c2)c1CCc1cccc(C(F)(F)F)c1 [Example 94, 3-[(1-methyl-5-{2-[3-(trifluoromethyl)phenyl]ethyl}-1H-pyrazol-4-yl)ethynyl]benzenesulfonamide]	7.74
Cc1nn(C)c(COc2ccc(C(F)(F)F)cc2)c1C#Cc1cccc(S(N)(=O)=O)c1 [Example 81, 3-[(1,3-dimethyl-5-{[4-(trifluoromethyl)phenoxy]methyl}-1H-pyrazol-4-yl)ethynyl]benzenesulfonamide]	7.84

Further lines, results first:

pIC50	SMILES
8.57	Cn1ncc(C#Cc2cccc(S(N)(=O)=O)c2)c1COc1ccc(C(F)(F)F)cc1 [Example 84, 3-[(1-methyl-5-{[4-(trifluoromethyl)phenoxy]methyl}-1H-pyrazol-4-yl)ethynyl]benzenesulfonamide]
7.12	Cn1ncc(C#Cc2ccc(S(N)(=O)=O)cc2)c1-c1ccc(C(F)(F)F)cn1 [Example 50, 4-({1-methyl-5-[5-(trifluoromethyl)pyridin-2-yl]-1H-pyrazol-4-yl}ethynyl)benzenesulfonamide]
8.68	Cn1ncc(C#Cc2ccc(S(N)(=O)=O)cc2)c1-c1nc(-c2ccc(C(F)(F)F)cc2)no1 [Example 73, 4-[(1-methyl-5-{3-[4-(trifluoromethyl)phenyl]-1,2,4-oxadiazol-5-yl}-1H-pyrazol-4-yl)ethynyl]benzenesulfonamide]
8.01	Cn1ncc(C#Cc2ccc(S(N)(=O)=O)cc2)c1-c1cnn(-c2ccc(C(F)(F)F)cc2)c1 [Example 64, 4-({2-methyl-1′-[4-(trifluoromethyl)phenyl]-1′H,2H-3,4′-bipyrazol-4-yl}ethynyl)benzenesulfonamide]
8.46	Cn1ncc(C#Cc2cccc(S(N)(=O)=O)c2)c1-c1cc(-c2ccc(C(F)(F)F)cc2)no1 [Example 87, 3-[(1-methyl-5-{3-[4-(trifluoromethyl)phenyl]-1,2-oxazol-5-yl}-1H-pyrazol-4-yl)ethynyl]benzenesulfonamide]
7.26	Cn1ncc(C#Cc2cccc(S(N)(=O)=O)c2)c1OCc1ccc(C(F)(F)F)cc1 [Example 89, 3-[(1-methyl-5-{[4-(trifluoromethyl)benzyl]oxy}-1H-pyrazol-4-yl)ethynyl]benzenesulfonamide]

Same assay, conditions: inhibition of glutamic acid (30 μM, only compounds 1 and 40)-stimulated specific [35S]GTPγS binding, rat mGlu2 CHO membranes

pIC50	SMILES
7.62	Cn1ncc(C#Cc2cccc(S(N)(=O)=O)c2)c1N1Cc2cc3ccccc3cc2C1 [Example 40, 3-{[5-(1,3-dihydro-2H-benzo[f]isoindol-2-yl)-1-methyl-1H-pyrazol-4-yl]ethynyl}benzenesulfonamide]
6.80	CN(C)CCNS(=O)(=O)c1cccc(C#Cc2cnn(C)c2-c2ccc(C(F)(F)F)cc2)c1 [Example 1, N-[2-(dimethylamino)ethyl]-3-({1-methyl-5-[4-(trifluoromethyl)phenyl]-1H-pyrazol-4-yl}ethynyl)benzenesulfonamide]

Target: T2, human metabotropic glutamate receptor (mGlu2) (Homo sapiens, UniProt Q14416)
T2 construct: expressed in transfected cells
Experiment: [35S]GTPγS binding test (2), crude membrane fraction of CHO cells stably expressing human mGlu2
Type: biochemical
Conditions: inhibition of glutamic acid (20 μM)-stimulated specific [35S]GTPγS binding, human mGlu2 CHO membranes
Experimental: [^35S]GTPγS Binding Test (2)
(Preparation of Crude Membrane Fraction of CHO Cells Stably Expressing the Human Metabotropic Glutamate Receptor (mGlu2))
as §1, with “human” for “rat”, “mGlu2 receptor” for “mGlu2”, “streptomycin, 400 μg/mL hygromycin B,” for “streptomycin,”, “The obtained crude membrane fraction was preserved at −80° C.” left out
The frozen membrane fraction as prepared above was thawed when used, and it was then diluted with a binding test buffer (final concentration: 20 mM HEPES, 100 mM NaCl, 10 mM MgCl2, 8.4 μM GDP, 10 μg/mL saponin, and 0.1% BSA). […] A scintillation cocktail was added to the resulting filter, and membrane-bound radioactivity was then measured with a liquid scintillation counter. […]

T2 sequence (Q14416 19-872): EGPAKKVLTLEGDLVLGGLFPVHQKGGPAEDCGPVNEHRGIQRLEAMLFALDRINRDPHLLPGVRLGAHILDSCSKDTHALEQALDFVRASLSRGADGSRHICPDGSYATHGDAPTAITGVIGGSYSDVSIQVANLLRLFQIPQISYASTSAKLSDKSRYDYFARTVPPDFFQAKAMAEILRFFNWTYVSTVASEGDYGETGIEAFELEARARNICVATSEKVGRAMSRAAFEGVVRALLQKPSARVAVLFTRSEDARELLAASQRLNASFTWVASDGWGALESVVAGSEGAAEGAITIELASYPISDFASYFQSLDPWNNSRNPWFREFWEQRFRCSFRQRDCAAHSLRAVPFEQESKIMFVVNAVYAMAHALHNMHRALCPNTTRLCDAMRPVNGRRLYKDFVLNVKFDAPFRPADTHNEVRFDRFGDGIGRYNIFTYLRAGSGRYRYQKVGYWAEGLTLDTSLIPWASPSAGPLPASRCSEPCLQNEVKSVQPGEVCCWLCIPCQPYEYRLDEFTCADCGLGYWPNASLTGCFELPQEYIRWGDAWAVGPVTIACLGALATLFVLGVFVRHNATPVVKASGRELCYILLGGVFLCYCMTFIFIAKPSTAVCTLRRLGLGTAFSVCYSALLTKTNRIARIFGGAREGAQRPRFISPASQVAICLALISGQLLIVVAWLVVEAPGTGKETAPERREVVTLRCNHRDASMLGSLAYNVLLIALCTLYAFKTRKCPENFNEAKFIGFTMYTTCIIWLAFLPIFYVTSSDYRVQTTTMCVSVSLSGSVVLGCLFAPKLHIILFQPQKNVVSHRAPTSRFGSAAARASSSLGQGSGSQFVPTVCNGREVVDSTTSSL

pIC50	SMILES
8.91	Cn1ncc(C#Cc2ccc(S(N)(=O)=O)cc2)c1COc1ccc(C(F)(F)F)cn1 [Example 109, 4-{[1-methyl-5-({[5-(trifluoromethyl)pyridin-2-yl]oxy}methyl)-1H-pyrazol-4-yl]ethynyl}benzenesulfonamide]
8.04	Cn1ncc(C#Cc2ccc(S(N)(=O)=O)cc2)c1COc1ccc(F)cn1 [Example 108, 4-[(5-{[(5-fluoropyridin-2-yl)oxy]methyl}-1-methyl-1H-pyrazol-4-yl)ethynyl]benzenesulfonamide]
